# Values of other authors, collected in patent US20130035389A1, “METHODS FOR TREATING MYELODYSPLASTIC SYNDROME WITH EZATIOSTAT” (Telik, Inc., priority 2011, published 2013).
# Assays:
# myelodysplastic syndrome = details: low risk and intermediate-1 risk MDS patients, oral, phase II study
# GST P1-1 = GST P1-1 (Homo sapiens, UniProt P09211); details: leads to de-repression of jun kinase and activation of c-Jun
# [1] = system: hematopoietic progenitor cells; details: in vitro
# leukemia cells = details: in vitro
# Chain of GST P1-1 (P09211 2-210 limits assumed): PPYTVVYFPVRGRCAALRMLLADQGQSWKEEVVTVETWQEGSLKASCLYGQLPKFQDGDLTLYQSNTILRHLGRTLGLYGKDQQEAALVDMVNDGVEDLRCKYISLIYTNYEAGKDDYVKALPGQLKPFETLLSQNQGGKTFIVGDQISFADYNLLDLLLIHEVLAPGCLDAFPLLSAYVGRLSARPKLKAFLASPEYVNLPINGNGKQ
SMILES,clinical response (myelodysplastic syndrome),inhibition of GST P1-1 (GST P1-1),effect on growth and differentiation of hematopoietic progenitor cells [1],apoptosis in leukemia cells (leukemia cells)
CCOC(=O)[C@@H](N)CCC(=O)N[C@@H](CSCc1ccccc1)C(=O)N[C@@H](C(=O)OCC)c1ccccc1.Cl [ezatiostat hydrochloride],multilineage responses,–,–,–
"CCOC(=O)[C@@H](N)CCC(=O)N[C@@H](CSCc1ccccc1)C(=O)N[C@@H](C(=O)OCC)c1ccccc1 [Ezatiostat, ethyl (2S)-2-amino-5-[[(2R)-3-benzylsulfanyl-1-[[(1R)-2-ethoxy-2-oxo-1-phenylethyl]amino]-1-oxopropan-2-yl]amino]-5-oxopentanoate]",–,inhibits GST P1-1,stimulate growth and differentiation of hematopoietic progenitor cells,induce apoptosis in leukemia cells
